Measurements taken from ChEMBL document CHEMBL1201862, “PubChem BioAssay data set” (2004).
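Results reflect a 48-hour exposure of cells in 96-well plates to compound at five concentrations. At the GI50, growth is halved.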 The source made the active and inactive calls. Rule as the data show it: active = GI50 up to about 1.1 µM and inactive = higher.

What was measured:
Experiment in all cases: DTP human tumour cell line panel, 48 h
A498 = system: A498
A549 = system: A549
ACHN = system: ACHN
CAKI-1 = system: CAKI-1
HT-29 = system: HT-29
M14 = system: M14
MDA-N = system: MDA-N
Malme-3M = system: Malme-3M
NCI-H226 = system: NCI-H226
OVCAR-3 = system: OVCAR-3
OVCAR-4 = system: OVCAR-4
OVCAR-5 = system: OVCAR-5
RXF 393 = system: RXF 393
SF-268 = system: SF-268
SK-MEL-2 = system: SK-MEL-2
SN12C = system: SN12C
TK-10 = system: TK-10
UACC-257 = system: UACC-257
MOLT-4 = system: MOLT-4
NCI-H522 = system: NCI-H522

Measured: GI50

CC(=O)OCC1OC(n2c(N)c(C#N)c(-c3ccc(C)cc3)c(C#N)c2=S)C(OC(C)=O)C(OC(C)=O)C1OC(C)=O (stereo not given)
inactive: A498 39.9 µM | A549 16 µM | ACHN 29.1 µM | CAKI-1 63.7 µM | HT-29 18.7 µM | M14 16.4 µM | MDA-N 17.1 µM | Malme-3M 17.8 µM | NCI-H226 3.53 µM | OVCAR-3 31.3 µM | OVCAR-4 41.9 µM | OVCAR-5 53.5 µM | RXF 393 18.7 µM | SF-268 15.2 µM | SK-MEL-2 15.2 µM | SN12C 15.6 µM | TK-10 18.5 µM | UACC-257 19.2 µM

COC(=O)c1nc(-c2nc(CCNC(=O)OC(C)(C)C)sc2Cl)sc1Cl
inactive: A498 94.6 µM | A549 > 100 µM | ACHN 83.2 µM | HT-29 > 100 µM | M14 32.1 µM | MDA-N 49.9 µM | MOLT-4 23.8 µM | Malme-3M 66.8 µM | NCI-H226 33.3 µM | OVCAR-3 68.9 µM | OVCAR-5 > 100 µM | RXF 393 > 100 µM | SF-268 74.6 µM | SN12C > 10 µM | TK-10 > 100 µM | UACC-257 > 100 µM

CC(=O)N1c2ccccc2C(C)(C)OC1C(Cl)(Cl)Cl (stereo not given)
inactive: A498 37 µM | A549 27.7 µM | ACHN 41.1 µM | CAKI-1 46.6 µM | HT-29 24.2 µM | M14 34 µM | MDA-N 26.1 µM | MOLT-4 14.4 µM | Malme-3M 35.9 µM | NCI-H226 87.7 µM | NCI-H522 23.3 µM | OVCAR-3 33.1 µM | OVCAR-4 42.5 µM | OVCAR-5 44.8 µM | SF-268 37.3 µM | SK-MEL-2 45.1 µM | SN12C 29.9 µM | TK-10 35.9 µM | UACC-257 26.5 µM

C=C[C@]1(O[Si](C)(C)C)C[C@@]2(C(=O)OCC)C(O)C(=O)N3CCc4cc(OC)c(OC)cc4[C@]312 (stereo not given in full)
inactive: A498 40.9 µM | A549 > 100 µM | ACHN > 100 µM | CAKI-1 > 100 µM | HT-29 > 100 µM | M14 > 100 µM | MDA-N > 100 µM | MOLT-4 > 100 µM | Malme-3M > 100 µM | NCI-H226 > 100 µM | OVCAR-3 > 100 µM | OVCAR-4 > 100 µM | OVCAR-5 > 100 µM | RXF 393 > 100 µM | SF-268 > 100 µM | SK-MEL-2 > 100 µM | SN12C > 100 µM | TK-10 > 100 µM | UACC-257 > 100 µM

CCCCCCc1cc2cc(C(=O)Nc3ccccc3F)c(=N)oc2cc1O
inactive: A498 14.4 µM | A549 6.97 µM | ACHN 6.08 µM | CAKI-1 6.32 µM | HT-29 24.7 µM | M14 10.2 µM | MDA-N 7.29 µM | MOLT-4 3.21 µM | Malme-3M 6.12 µM | NCI-H522 2.69 µM | OVCAR-3 6.38 µM | OVCAR-4 4.93 µM | OVCAR-5 21.2 µM | SF-268 12.4 µM | SK-MEL-2 7.21 µM | UACC-257 6.64 µM

O=c1n(-c2ccccc2)c(=O)n2n1C1CCC2CC1
inactive: A498 > 100 µM | A549 > 100 µM | ACHN > 100 µM | CAKI-1 > 100 µM | HT-29 > 100 µM | M14 > 100 µM | MDA-N > 100 µM | MOLT-4 > 100 µM | NCI-H226 > 100 µM | OVCAR-3 > 100 µM | OVCAR-5 > 100 µM | SF-268 > 100 µM | SK-MEL-2 > 100 µM | SN12C > 100 µM | TK-10 > 100 µM | UACC-257 > 100 µM

O=C(O)c1cc2ccccc2c2c1C(=O)c1ccccc1-2
inactive: A549 75.9 µM | ACHN 30.3 µM | CAKI-1 > 100 µM | HT-29 > 100 µM | M14 46.7 µM | MDA-N > 100 µM | MOLT-4 > 100 µM | Malme-3M 83.8 µM | NCI-H226 > 100 µM | NCI-H522 83.9 µM | OVCAR-3 50 µM | OVCAR-4 > 100 µM | OVCAR-5 > 100 µM | RXF 393 > 100 µM | SF-268 > 100 µM | SK-MEL-2 > 100 µM | SN12C 75 µM | TK-10 > 100 µM | UACC-257 > 100 µM

N#CC(NNC(=O)c1c(Cl)c(Cl)c(Cl)c(Cl)c1-c1nc2cc(C(=O)c3ccccc3)ccc2[nH]1)c1ccccc1 (stereo not given)
inactive: A549 6.76 µM | ACHN 10.6 µM | CAKI-1 21.4 µM | HT-29 8.53 µM | M14 7.46 µM | MDA-N 2.56 µM | MOLT-4 3.22 µM | Malme-3M 8.57 µM | NCI-H226 9.2 µM | NCI-H522 3.39 µM | OVCAR-3 4.57 µM | OVCAR-4 7.13 µM | OVCAR-5 26.5 µM | RXF 393 3.18 µM | SF-268 7.83 µM | SK-MEL-2 8.91 µM | SN12C 6.61 µM | TK-10 21.8 µM | UACC-257 9.98 µM

CC1=C(C(=S)Nc2ccc(Cl)c(C(=O)OC(C)C)c2)SCCO1
inactive: A498 16.1 µM | A549 31 µM | ACHN 25.8 µM | CAKI-1 24.2 µM | HT-29 18.6 µM | M14 18.8 µM | MDA-N 18.6 µM | MOLT-4 15.7 µM | Malme-3M 20.3 µM | NCI-H226 22.2 µM | NCI-H522 21.4 µM | OVCAR-3 22.8 µM | OVCAR-4 12.3 µM | OVCAR-5 34.6 µM | SF-268 25.1 µM | SK-MEL-2 21.5 µM | SN12C 16.7 µM | TK-10 22.2 µM | UACC-257 18.5 µM

CCOc1ccc(N/C(=C(/C(Cl)=C(/Cl)N(CC)CC)[N+](=O)[O-])n2nnc3ccccc32)cc1
inactive: A498 15 µM | A549 34.4 µM | ACHN 20 µM | CAKI-1 13.4 µM | HT-29 26.4 µM | M14 31.8 µM | MDA-N 26.7 µM | MOLT-4 > 100 µM | Malme-3M 17.9 µM | NCI-H226 37.8 µM | OVCAR-3 5.24 µM | OVCAR-4 19.7 µM | OVCAR-5 33.3 µM | RXF 393 14.4 µM | SF-268 15.7 µM | SK-MEL-2 28.2 µM | SN12C 21.6 µM | UACC-257 38.7 µM

C[C@@H]1CC[C@H]2[C@H](C)C(OC3O[C@@H]4O[C@@]5(C)CC[C@H]6[C@H](C)CC[C@@H]([C@@H]3C)[C@@]46O5)O[C@@H]3O[C@@]4(C)CC[C@@H]1[C@]32O4 (stereo not given in full)
inactive: A498 > 100 µM | A549 > 100 µM | ACHN > 100 µM | CAKI-1 > 100 µM | HT-29 > 100 µM | M14 > 100 µM | MDA-N > 100 µM | MOLT-4 > 100 µM | Malme-3M > 100 µM | NCI-H226 > 100 µM | NCI-H522 > 100 µM | OVCAR-3 > 100 µM | OVCAR-4 > 100 µM | OVCAR-5 > 100 µM | SF-268 > 100 µM | SK-MEL-2 > 100 µM | SN12C > 100 µM | TK-10 > 100 µM | UACC-257 > 100 µM

COc1ccc(C2OC(N)=C(C#N)C3=C2CCCC3C)cc1OC (stereo not given)
inactive: A498 > 100 µM | ACHN > 100 µM | CAKI-1 > 100 µM | HT-29 > 100 µM | M14 > 100 µM | MDA-N > 100 µM | MOLT-4 > 100 µM | Malme-3M > 100 µM | NCI-H226 > 100 µM | OVCAR-3 > 100 µM | OVCAR-5 > 100 µM | RXF 393 > 100 µM | SF-268 > 100 µM | SK-MEL-2 > 100 µM | SN12C > 100 µM | TK-10 > 100 µM | UACC-257 > 100 µM

CC(O)(CCCCCl)c1nc2ccccc2s1 (stereo not given)
inactive: A498 > 100 µM | A549 > 100 µM | ACHN > 100 µM | CAKI-1 > 100 µM | HT-29 65.9 µM | M14 > 100 µM | MDA-N > 100 µM | MOLT-4 50.7 µM | NCI-H226 > 100 µM | NCI-H522 > 100 µM | OVCAR-3 > 100 µM | OVCAR-4 > 100 µM | OVCAR-5 > 100 µM | SF-268 52.8 µM | SK-MEL-2 > 100 µM | SN12C > 100 µM | TK-10 > 100 µM | UACC-257 > 100 µM

Cc1cc(NS(=O)(=O)c2ccc(NC(=O)c3ccc4[nH]c5ccccc5c(=O)c4c3)cc2)no1
inactive: A549 > 100 µM | ACHN > 100 µM | CAKI-1 > 100 µM | HT-29 > 100 µM | M14 > 100 µM | MDA-N > 100 µM | MOLT-4 49.8 µM | Malme-3M 56.9 µM | NCI-H226 > 100 µM | NCI-H522 > 100 µM | OVCAR-3 > 100 µM | OVCAR-4 > 100 µM | OVCAR-5 > 100 µM | RXF 393 45.4 µM | SF-268 > 100 µM | SK-MEL-2 75.3 µM | SN12C > 100 µM | TK-10 > 100 µM | UACC-257 > 100 µM

O=C(OC[C@H]1C[C@H]2C(=O)OCCC[C@H]2O1)c1ccccc1
inactive: A498 > 100 µM | A549 > 100 µM | ACHN > 100 µM | CAKI-1 > 100 µM | HT-29 > 100 µM | M14 > 100 µM | MDA-N > 100 µM | MOLT-4 > 100 µM | NCI-H226 > 100 µM | NCI-H522 > 100 µM | OVCAR-3 > 100 µM | OVCAR-4 > 100 µM | OVCAR-5 > 100 µM | SF-268 > 100 µM | SK-MEL-2 > 100 µM | SN12C > 100 µM | TK-10 > 100 µM | UACC-257 > 100 µM
